Data reported in the OligoGym collection.
Values joined by “and” are separate entries in the source; they are usually repeats but may differ in a detail not shown here. Equal values may be shown once. After the bases stand the sugars from the 5' end (letter, count) and the backbone: PS all phosphorothioate, else s phosphorothioate and o phosphodiester by linkage. Methylation of C is not given here. e = 2'-O-(2-methoxyethyl) (MOE); k = constrained ethyl (cEt); d = 2'-deoxy (DNA)

What follows are sequences tested against MALAT1. Details: ASO, A431, 0.005 µM.

Sequence	target mRNA inhibition
AAGGATCCAAGCTACT (sugars k3 d10 k3, PS)	8%
AAGGTTACCATAAGTA (sugars k3 d10 k3, PS)	46%
AAGTCTCGGGCTGCAG (sugars k3 d10 k3, PS)	4%
AAGTTACATGTTCCCA (sugars k3 d10 k3, PS)	39%
AATAAGCACTTATCCC (sugars k3 d10 k3, PS)	31%
AATACTTGTCTTAGCT (sugars k3 d10 k3, PS)	41%
AATAGTACTATAGCAT (sugars k3 d10 k3, PS)	15%
AATATCTTAGTAACCT (sugars k3 d10 k3, PS)	19%
AATCAAGTCAAGCTCC (sugars k3 d10 k3, PS)	14%
AATCACAAATACGACT (sugars k3 d10 k3, PS)	23%
AATCACCTACAACTTT (sugars k3 d10 k3, PS)	26%
AATCACCTTCGGTTTA (sugars k3 d10 k3, PS)	-1%
AATCCCCTAGGGAAGG (sugars k3 d10 k3, PS)	5%
AATGCTAGTCCTCAGG (sugars k3 d10 k3, PS)	57% and 78%
AATGGAGGTATGACAT (sugars k3 d10 k3, PS)	5%
AATTAATGCTAGTCCT (sugars k3 d10 k3, PS)	16%
AATTACTCTTGATCTT (sugars k3 d10 k3, PS)	51%
ACAAACTGCTTACAGA (sugars k3 d10 k3, PS)	17%
ACAAGTTACATGTTCC (sugars k3 d10 k3, PS)	21%
ACAATCAAGTCAAGCT (sugars k3 d10 k3, PS)	15%
ACACCCGGAAATCGGC (sugars k3 d10 k3, PS)	8%
ACACTTCTCTTGACCT (sugars k3 d10 k3, PS)	60% and 44% and 50%
ACAGATTAGTAGTCAA (sugars k3 d10 k3, PS)	9%

Sequence	target mRNA inhibition
ACAGTAGGTATAGTTT (sugars k3 d10 k3, PS)	24%
ACATGCCAGTTACTCC (sugars k3 d10 k3, PS)	39%
ACCAAATTGCACTCGC (sugars k3 d10 k3, PS)	40%
ACCAATCCCAACCGTA (sugars k3 d10 k3, PS)	18%
ACCACAACAATTTAGA (sugars k3 d10 k3, PS)	-10%
ACCACCACCTGGAATG (sugars k3 d10 k3, PS)	22%
ACCACCTGGAATGGCC (sugars k3 d10 k3, PS)	15%
ACCCACCAAAGACCTC (sugars k3 d10 k3, PS)	9%
ACCCAGCATTACAGTT (sugars k3 d10 k3, PS)	8%
ACCCCTGACTTTCTGG (sugars k3 d10 k3, PS)	18%
ACCGATTATGGATCAT (sugars k3 d10 k3, PS)	36%
ACCGCTTGAGATTTGG (sugars k3 d10 k3, PS)	32% and 41%
ACCGGAATTCGATCAC (sugars k3 d10 k3, PS)	35%
ACCGTTTTTCAGCTTC (sugars k3 d10 k3, PS)	-30%
ACCTGGAATGGCCAGC (sugars k3 d10 k3, PS)	21%
ACCTTAGGATAATAGC (sugars k3 d10 k3, PS)	39%
ACCTTCTAACTTCTGC (sugars k3 d10 k3, PS)	64% and 42%
ACCTTGAGTCATTTGC (sugars k3 d10 k3, PS)	66%
ACGAAACATTGGCACA (sugars k3 d10 k3, PS)	62% and 40%
ACGAAACTCCCCCATT (sugars k3 d10 k3, PS)	36%
ACGAACTGCTGCTTGC (sugars k3 d10 k3, PS)	66% and 49% and 50%
ACGGAGAACAACTCGC (sugars k3 d10 k3, PS)	1%
ACTAAGCTACTATATT (sugars k3 d10 k3, PS)	39%

Sequence	target mRNA inhibition
ACTATATTTAAGGCCT (sugars k3 d10 k3, PS)	40%
ACTATTTCTCCAGGAC (sugars k3 d10 k3, PS)	20%
ACTCAGCCTTTATCAC (sugars k3 d10 k3, PS)	-5%
ACTCCAAGAACTAGCA (sugars k3 d10 k3, PS)	11%
ACTCGCATCACCGGAA (sugars k3 d10 k3, PS)	15%
ACTCTAAGATTGTAAG (sugars k3 d10 k3, PS)	25%
ACTCTTGATCTTGAAT (sugars k3 d10 k3, PS)	43%
ACTGTAAACCTGTGGT (sugars k3 d10 k3, PS)	-6%
ACTTACTGGTTTAAGT (sugars k3 d10 k3, PS)	-3%
ACTTTTAATCATACTC (sugars k3 d10 k3, PS)	21%
AGAAACCTACAACACC (sugars k3 d10 k3, PS)	-6%
AGAACTAGCACCTGCA (sugars k3 d10 k3, PS)	15%
AGAACTAGTGGTTCCC (sugars k3 d10 k3, PS)	-3%
AGAACTGCTCTAGTTT (sugars k3 d10 k3, PS)	-6%
AGACGGAGAACAACTC (sugars k3 d10 k3, PS)	-14%
AGAGTAACTACCAGCC (sugars k3 d10 k3, PS)	55% and 76%
AGATTCCGTAACTTTA (sugars k3 d10 k3, PS)	78% and 92%
AGATTGTAAGCATTTA (sugars k3 d10 k3, PS)	42%
AGCACATCATGCTATT (sugars k3 d10 k3, PS)	26%
AGCACTTATCCCTAAC (sugars k3 d10 k3, PS)	40%
AGCAGAAGCCCCTGCG (sugars k3 d10 k3, PS)	-1%
AGCAGCGGGATCAGAA (sugars k3 d10 k3, PS)	19%
AGCCAAGCCGCCTGCT (sugars k3 d10 k3, PS)	20%

Sequence	target mRNA inhibition
AGCCTTCAGAGATTCA (sugars k3 d10 k3, PS)	75% and 91%
AGCGGTACACTCCTTC (sugars k3 d10 k3, PS)	50% and 43%
AGCTACAACAAGTAAG (sugars k3 d10 k3, PS)	12%
AGCTACTTAGCTGTGG (sugars k3 d10 k3, PS)	34%
AGCTCCTGACAAATTA (sugars k3 d10 k3, PS)	15%
AGCTGAACTATCACAA (sugars k3 d10 k3, PS)	5%
AGCTGAGGCTTCCCGG (sugars k3 d10 k3, PS)	12%
AGCTGTTTAAGTCACC (sugars k3 d10 k3, PS)	62% and 57%
AGCTTGACAAGCAATT (sugars k3 d10 k3, PS)	16%
AGGACTTGGCAGTCTG (sugars k3 d10 k3, PS)	30%
AGGATCCAAGCTACTG (sugars k3 d10 k3, PS)	-13%
AGGATGAAATGCCTCT (sugars k3 d10 k3, PS)	22%
AGGCAAACGAAACATTGGCA (sugars e5 d10 e5, PS)	3% and 12%
AGGCAAATCGCCATGG (sugars k3 d10 k3, PS)	5%
AGGCAGTTATATTAGG (sugars k3 d10 k3, PS)	26%
AGGGACAGTAGGTATA (sugars k3 d10 k3, PS)	16%
AGGTATGACATATAAT (sugars k3 d10 k3, PS)	35%
AGTAACCTATTGACTA (sugars k3 d10 k3, PS)	-16%
AGTAAGAATCTCAGGG (sugars k3 d10 k3, PS)	45%
AGTAAGCCCCACCCCC (sugars k3 d10 k3, PS)	29%
AGTAGACCAACTAAGC (sugars k3 d10 k3, PS)	25%
AGTAGGCCAGACCAAC (sugars k3 d10 k3, PS)	4%
AGTAGGTATAGTTTAC (sugars k3 d10 k3, PS)	10%

Sequence	target mRNA inhibition
AGTATTACTCTAATCA (sugars k3 d10 k3, PS)	23%
AGTATTATAATAGAGC (sugars k3 d10 k3, PS)	20%
AGTCCTAGCTTCATCA (sugars k3 d10 k3, PS)	27%
AGTCTACAAGTTACAT (sugars k3 d10 k3, PS)	3%
AGTGTACTATCCCATC (sugars k3 d10 k3, PS)	78% and 91%
AGTGTTTACACTGCTC (sugars k3 d10 k3, PS)	22%
AGTTACTTGCCAACTT (sugars k3 d10 k3, PS)	7%
AGTTTGTCAATAGTAC (sugars k3 d10 k3, PS)	42%
ATAACAAGTTTAAGGG (sugars k3 d10 k3, PS)	41%
ATAATAGAGCTACTTA (sugars k3 d10 k3, PS)	19%
ATACAAACTGCTTACA (sugars k3 d10 k3, PS)	-30%
ATACCCTTCTGTTAAC (sugars k3 d10 k3, PS)	2%
ATAGACCCCTGACTTT (sugars k3 d10 k3, PS)	34%
ATAGAGCTACTTAGCT (sugars k3 d10 k3, PS)	19%
ATAGTTCAACCCACCA (sugars k3 d10 k3, PS)	21%
ATAGTTTACCACCTTT (sugars k3 d10 k3, PS)	39%
ATATTGCCGACCTCAC (sugars k3 d10 k3, PS)	26%
ATATTTGCCCCTCCCC (sugars k3 d10 k3, PS)	27%
ATCAAACACTGGTTCC (sugars k3 d10 k3, PS)	48%
ATCAAGTCAAGCTCCT (sugars k3 d10 k3, PS)	11%
ATCACAAATACGACTG (sugars k3 d10 k3, PS)	34%
ATCAGGTGAGGCTGAC (sugars k3 d10 k3, PS)	23%
